Literature values, collected in US20020155083A1, “Dermal regeneration methods and compositions related thereto in conjunction with laser phototherapy, microdermabrasion and epidermabrasion” (priority 2001, published 2002).
Ends that are not written are not given here.

What was measured:
influenza virus = details: in combination with amantadine and interferon; mice infected with the influenza virus
[1] = tested on: C. albicans, Listeria monocytogenes, Pseudomonas aeruginosa, and Serratia marescens; details: 5-fluorouracil (5FU)- or morphine-immunosuppressed mice, injection
Candida albicans = details: mice, injection
interferon (IFN) = details: mouse, in vivo
[2] = tested on: BCO, Candida, or Cryptococcus; details: immunosuppressed mice infected with BCO

thymosin α1 (SDAAVDTSSEITTKDLKEKKEVVEEAEN; ends and bridges not checked; UniProt P06454 2-29, looked up) [Tα1]
long term survival (influenza virus): significantly increase | viral titers in the lungs (influenza virus): reduce viral titers | protection against opportunistic infections [1]: protect | resistance to infection with Candida albicans (Candida albicans): increased resistance | amount of interferon (IFN) produced (interferon (IFN)): significant rise | survival rate [2]: increased survival rate
